The values that follow come from ChEMBL document CHEMBL1144019 (Bioorg Med Chem, 2008).

≈ marks a conversion by molar mass, not a printed value.

What all share (assay type): functional
For assay [1], the system named is Escherichia coli. Put plainly: Antibacterial activity against Escherichia coli SR-21003 by standard serial agar dilution method. A general note: In agar dilution, organisms are placed on agar that contains the substance at set levels.
For assay [2], the system named is Escherichia coli. Put plainly: Antibacterial activity against Toho 2 producing Escherichia coli by standard serial agar dilution method.
Another assay has as its system Moraxella catarrhalis. Put plainly: Antibacterial activity against Moraxella catarrhalis ATCC 43617 by standard serial agar dilution method.
Another assay relates to Streptococcus pneumoniae. Put plainly: Antibacterial activity against penicillin-resistant Streptococcus pneumoniae SR-16675 by standard serial agar dilution method.
The subject of assay [3] is Pseudomonas aeruginosa. Put plainly: Antibacterial activity against AmpC hyperproducing Pseudomonas aeruginosa SR24-12 by standard serial agar dilution method.
Assay [4] concerns Haemophilus influenzae. Put plainly: Antibacterial activity against Haemophilus influenzae ATCC 49766 by standard serial agar dilution method.
The test system of assay [5] is Pseudomonas aeruginosa. Put plainly: Antibacterial activity against Pseudomonas aeruginosa SR-5393 by standard serial agar dilution method.
Assay [6] relates to Haemophilus influenzae. Put plainly: Antibacterial activity against beta-lactamase negative ampicillin-resistant Haemophilus influenzae SR-11435 by standard serial agar dilution method.
In a further assay the test system is Staphylococcus aureus. Put plainly: Antibacterial activity against Staphylococcus aureus Smith by standard serial agar dilution method.
Assay [7] concerns Pseudomonas aeruginosa. Put plainly: Antibacterial activity against Pseudomonas aeruginosa SR24 by standard serial agar dilution method.
The subject of assay [8] is Enterobacter cloacae. Put plainly: Antibacterial activity against AmpC producing Enterobacter cloacae SR-4321 by standard serial agar dilution method.
Assay [9] relates to Enterobacter cloacae. Put plainly: Antibacterial activity against Enterobacter cloacae ATCC 13047 by standard serial agar dilution method.
Assay [10] concerns Pseudomonas aeruginosa. Put plainly: Antibacterial activity against imipenem-resistant Pseudomonas aeruginosa SR-6554 by standard serial agar dilution method.

On to `C[C@H](O/N=C(\C(=O)N[C@@H]1C(=O)N2C(C(=O)[O-])=C(C[n+]3cccc4c3ccn4CCNS(N)(=O)=O)CS[C@H]12)c1nc(N)sc1Cl)C(=O)O`, for which the MIC with Escherichia coli [1] was found to be 0.25 µg/mL (≈ 0.343 µM); in the assay on Escherichia coli [2], 2 µg/mL (≈ 2.75 µM); with Moraxella catarrhalis it was 0.016 µg/mL (≈ 0.022 µM); with Streptococcus pneumoniae, 2 µg/mL (≈ 2.75 µM); with Pseudomonas aeruginosa [3] it was 4 µg/mL (≈ 5.49 µM); in the assay with Haemophilus influenzae [4] it was 0.032 µg/mL (≈ 0.0439 µM). The MIC with Pseudomonas aeruginosa [5] turned out to be 4 µg/mL (≈ 5.49 µM); with Haemophilus influenzae [6], 0.063 µg/mL (≈ 0.0865 µM); in the assay on Staphylococcus aureus it was 2 µg/mL (≈ 2.75 µM); against Pseudomonas aeruginosa [7], 1 µg/mL (≈ 1.37 µM); against Enterobacter cloacae [8], 4 µg/mL (≈ 5.49 µM); against Enterobacter cloacae [9], 0.5 µg/mL (≈ 0.687 µM). Besides, in the assay with Pseudomonas aeruginosa [10], the MIC is 8 µg/mL (≈ 11 µM).

Consider `CNCCn1ncc2c1ccc[n+]2CC1=C(C(=O)[O-])N2C(=O)[C@@H](NC(=O)/C(=N\O[C@@H](C)C(=O)O)c3nc(N)sc3Cl)[C@H]2SC1`, for which the MIC is 1 µg/mL (≈ 1.51 µM) in the assay with Escherichia coli [1]; 4 µg/mL (≈ 6.02 µM) with Escherichia coli [2]; 0.032 µg/mL (≈ 0.0482 µM) with Moraxella catarrhalis; 4 µg/mL (≈ 6.02 µM) with Streptococcus pneumoniae; 8 µg/mL (≈ 12 µM) against Pseudomonas aeruginosa [3]; 0.125 µg/mL (≈ 0.188 µM) in the assay on Haemophilus influenzae [4]. Moreover, the MIC came out at 4 µg/mL (≈ 6.02 µM) against Pseudomonas aeruginosa [5]; 0.125 µg/mL (≈ 0.188 µM) in the assay with Haemophilus influenzae [6]; 4 µg/mL (≈ 6.02 µM) against Staphylococcus aureus; 1 µg/mL (≈ 1.51 µM) with Pseudomonas aeruginosa [7]; 4 µg/mL (≈ 6.02 µM) against Enterobacter cloacae [8]; 1 µg/mL (≈ 1.51 µM) in the assay with Enterobacter cloacae [9]. This compound yielded an MIC in the assay with Pseudomonas aeruginosa [10] of 16 µg/mL (≈ 24.1 µM).

With `C[C@H](O/N=C(\C(=O)N[C@@H]1C(=O)N2C(C(=O)[O-])=C(C[n+]3cccc4[nH]ccc43)CS[C@H]12)c1nc(N)sc1Cl)C(=O)O`, the MIC is 0.25 µg/mL (≈ 0.413 µM) against Escherichia coli [1]; 1 µg/mL (≈ 1.65 µM) in the assay on Escherichia coli [2]; 0.016 µg/mL (≈ 0.0264 µM) against Moraxella catarrhalis; 2 µg/mL (≈ 3.3 µM) against Streptococcus pneumoniae; 4 µg/mL (≈ 6.6 µM) against Pseudomonas aeruginosa [3]; 0.016 µg/mL (≈ 0.0264 µM) against Haemophilus influenzae [4]. Further, the MIC in the assay on Pseudomonas aeruginosa [5] was 2 µg/mL (≈ 3.3 µM); against Haemophilus influenzae [6], 0.032 µg/mL (≈ 0.0528 µM); with Staphylococcus aureus, 1 µg/mL (≈ 1.65 µM); with Pseudomonas aeruginosa [7] it was 1 µg/mL (≈ 1.65 µM); against Enterobacter cloacae [8] it was 2 µg/mL (≈ 3.3 µM); with Enterobacter cloacae [9], 0.25 µg/mL (≈ 0.413 µM). Further, in the assay with Pseudomonas aeruginosa [10], the MIC came out at 8 µg/mL (≈ 13.2 µM).

For `CNCCn1ccc2c[n+](CC3=C(C(=O)[O-])N4C(=O)[C@@H](NC(=O)/C(=N\O[C@@H](C)C(=O)O)c5nc(N)sc5Cl)[C@H]4SC3)ccc21`, the MIC in the assay on Escherichia coli [1] was 0.25 µg/mL (≈ 0.377 µM); in the assay with Escherichia coli [2], 2 µg/mL (≈ 3.02 µM); against Moraxella catarrhalis it was 0.032 µg/mL (≈ 0.0483 µM); with Streptococcus pneumoniae it was 4 µg/mL (≈ 6.03 µM); in the assay with Pseudomonas aeruginosa [3] it was 4 µg/mL (≈ 6.03 µM); with Haemophilus influenzae [4], 0.032 µg/mL (≈ 0.0483 µM). The MIC is 2 µg/mL (≈ 3.02 µM) in the assay on Pseudomonas aeruginosa [5]; 0.125 µg/mL (≈ 0.188 µM) against Haemophilus influenzae [6]; 4 µg/mL (≈ 6.03 µM) with Staphylococcus aureus; 1 µg/mL (≈ 1.51 µM) against Pseudomonas aeruginosa [7]; 8 µg/mL (≈ 12.1 µM) against Enterobacter cloacae [8]; 0.5 µg/mL (≈ 0.754 µM) with Enterobacter cloacae [9]. The compound also had an MIC against Pseudomonas aeruginosa [10] of 8 µg/mL (≈ 12.1 µM).

Consider `C[C@H](O/N=C(\C(=O)N[C@@H]1C(=O)N2C(C(=O)[O-])=C(C[n+]3cccc4c3nc(N)n4C3CCNCC3)CS[C@H]12)c1nc(N)sc1Cl)C(=O)O`, for which the MIC worked out at 0.25 µg/mL (≈ 0.355 µM) in the assay with Escherichia coli [1]; 2 µg/mL (≈ 2.84 µM) against Escherichia coli [2]; 0.016 µg/mL (≈ 0.0227 µM) in the assay on Moraxella catarrhalis; 2 µg/mL (≈ 2.84 µM) in the assay with Streptococcus pneumoniae; 2 µg/mL (≈ 2.84 µM) with Pseudomonas aeruginosa [3]; 0.016 µg/mL (≈ 0.0227 µM) in the assay on Haemophilus influenzae [4]. Also, the MIC is 2 µg/mL (≈ 2.84 µM) in the assay with Pseudomonas aeruginosa [5]; 0.063 µg/mL (≈ 0.0893 µM) against Haemophilus influenzae [6]; 2 µg/mL (≈ 2.84 µM) against Staphylococcus aureus; 0.5 µg/mL (≈ 0.709 µM) in the assay with Pseudomonas aeruginosa [7]; 2 µg/mL (≈ 2.84 µM) in the assay with Enterobacter cloacae [8]; 0.25 µg/mL (≈ 0.355 µM) against Enterobacter cloacae [9]. This compound came in with an MIC against Pseudomonas aeruginosa [10] of 4 µg/mL (≈ 5.67 µM).

As to `CNCCn1nnc2c1ccc[n+]2CC1=C(C(=O)[O-])N2C(=O)[C@@H](NC(=O)/C(=N\O[C@@H](C)C(=O)O)c3nc(N)sc3Cl)[C@H]2SC1`, the MIC in the assay on Escherichia coli [1] amounted to 0.25 µg/mL (≈ 0.376 µM); in the assay on Escherichia coli [2], 2 µg/mL (≈ 3.01 µM); against Moraxella catarrhalis, 0.032 µg/mL (≈ 0.0481 µM); against Streptococcus pneumoniae it was 2 µg/mL (≈ 3.01 µM); in the assay with Pseudomonas aeruginosa [3], 64 µg/mL (≈ 96.2 µM); against Haemophilus influenzae [4], 0.125 µg/mL (≈ 0.188 µM). Also, the MIC in the assay with Pseudomonas aeruginosa [5] came to 8 µg/mL (≈ 12 µM); in the assay on Haemophilus influenzae [6] it was 0.5 µg/mL (≈ 0.752 µM); against Staphylococcus aureus, 4 µg/mL (≈ 6.01 µM); with Pseudomonas aeruginosa [7], 2 µg/mL (≈ 3.01 µM); against Enterobacter cloacae [8] it was 8 µg/mL (≈ 12 µM); in the assay with Enterobacter cloacae [9] it was 0.5 µg/mL (≈ 0.752 µM). In the assay on Pseudomonas aeruginosa [10], this compound displayed an MIC of 64 µg/mL (≈ 96.2 µM).

Regarding `CNCCCc1cc[n+](CC2=C(C(=O)[O-])N3C(=O)[C@@H](NC(=O)/C(=N\O[C@@H](C)C(=O)O)c4nc(N)sc4Cl)[C@H]3SC2)cc1`, the MIC in the assay with Escherichia coli [1] amounted to 1 µg/mL (≈ 1.57 µM); against Escherichia coli [2], 4 µg/mL (≈ 6.27 µM); against Moraxella catarrhalis, 0.032 µg/mL (≈ 0.0501 µM); in the assay with Streptococcus pneumoniae it was 4 µg/mL (≈ 6.27 µM); against Pseudomonas aeruginosa [3], 8 µg/mL (≈ 12.5 µM); against Haemophilus influenzae [4], 0.125 µg/mL (≈ 0.196 µM). The MIC against Pseudomonas aeruginosa [5] was determined as 4 µg/mL (≈ 6.27 µM); against Haemophilus influenzae [6] it was 0.25 µg/mL (≈ 0.392 µM); against Staphylococcus aureus, 8 µg/mL (≈ 12.5 µM); in the assay with Pseudomonas aeruginosa [7], 1 µg/mL (≈ 1.57 µM); in the assay on Enterobacter cloacae [8], 8 µg/mL (≈ 12.5 µM); in the assay on Enterobacter cloacae [9] it was 1 µg/mL (≈ 1.57 µM). The compound also returned an MIC in the assay with Pseudomonas aeruginosa [10] of 16 µg/mL (≈ 25.1 µM).
